Measurements from publication PMC12658820, “Development of Tunable Rose Bengal-Based nanoGUMBOS as Potential Selective Chemotherapeutic Agents” (ACS Omega, 2025).
Values joined by “and” are separate entries in the source; they are usually repeats but may differ in a detail not shown here. Equal entries are not always repeated. “Also recorded” adds a separate entry of the source. Structures can show the parent of a compound that is named as a salt.

Key:
[1] = Octanol/water partition experiments; format: physicochemical; conditions: stirred 24 h, absorbance at 562 nm, triplicate
[2] = Dynamic light scattering (DLS) nanoparticle size; format: physicochemical; conditions: 10 μM solutions of nanoGUMBOS
Procedure: (§1) The series of RB-based nanoGUMBOS was synthesized by a simple reprecipitation method to form nanoparticles from a 10 mM RB-based GUMBOS stock solution in MeOH or DMSO. Briefly, a small aliquot of a MeOH/DMSO solution of each RB-based GUMBOS was rapidly introduced into a large volume of an aqueous cell medium (Dulbecco’s modified Eagle’s medium (DMEM), containing 10% fetal bovine serum) or water under ultrasonication. In this condition, a supersaturation of the hydrophobic RB-based GUMBOS is achieved in the aqueous system, leading to the precipitation of the RB-based GUMBOS into small particles. After that, the solution was placed on the bench and allowed to rest for a period of 15 min to allow the nucleation of the nanoparticles.
(§2) Once the incubation period concluded, DLS and S-TEM instruments were used to characterize the nanoGUMBOS. Dynamic light scattering was performed using a Malvern Zetasizer. […] Each compound was scanned at 25 °C for 10 s each scan, and the system automatically adjusted the scans needed per run. S-TEM was employed via the use of a JEOL-SEM 7600F instrument, with a vacuum pressure of 1.9E^–4 Pa, electron beam at 30,000 V, and amplified current of […], with each micrograph content being produced at 8000× magnification. ImageJ software was used for the measurements of electron micrograph images. The polydispersity index from the TEM micrograph was calculated using eq . 1 PDI=sizedeviation(σ)/sizemean(μ)

S-TEM nanoparticle size = format: physicochemical; conditions: for TEM mean size / TEM PDI: 10 μM solutions of nanoGUMBOS; for TEM PDI: size deviation/size mean
Procedure: as §1, §2

DLS ζ-potential = format: physicochemical; conditions: nanoGUMBOS, triplicate
Procedure: Ultraviolet–visible (UV–vis) absorption was measured between 560 and 562 nm using a Jasco V-750 spectrophotometer for the characterization of GUMBOS and nanoGUMBOS experiments. Fluorescence excitation and emission spectra were recorded using a Jasco FP-8500 fluorescence spectrophotometer. Fourier transform infrared (FT-IR) spectra were collected using a Thermo Scientific Nicolet iS20 instrument with 256 scans and a resolution of 4 cm^–1. A JEOL JSM 7600F scanning electron microscope (SEM) was employed for surface imaging and analysis of samples. A Mettler Toledo pH meter was used for measuring the pH of the various solutions. Ultrafast liquid chromatography (UFLC) coupled with a SHIMADZU electrospray ionization-mass spectrometer (ESI-MS) system was used for the characterization of the synthesized GUMBOS. ^1H and ^13C NMR spectra were collected using a JEOL ECZL-400S NMR spectrometer (400 MHz, CCRL05) equipped with a 24-position autosample changer and autotune probe. Dynamic light scattering (DLS) and ζ-potential measurements were conducted by using a Malvern Zetasizer Nano-Series system. The blood–brain barrier permeability was assessed by using a Bioassay Systems Parallel Artificial Membrane Permeability Assay-BBB Kit. Confocal fluorescence imaging was performed using a Zeiss confocal laser scanning microscope, LSM-710, equipped with an inverted Axio Observer Z1 platform and Airyscan detection. Triple-deionized water was purified by using a Millipore Milli-Q system.
as §2, with “ImageJ software was used for the measurements of electron micrograph images.” left out, “1 PDI=sizedeviation(σ)/sizemean(μ)” left out

[3] = test system: A549 lung carcinoma cells; assay: Confocal microscopy cell viability (DAPI-stained nuclei), A549; format: cell-based, human; conditions: for average viability decrease, A549 / cell viability versus control, statistical significance, A549 / average cell viability, A549: 10 μM nanoGUMBOS; for cell viability versus control, statistical significance, A549: unpaired t-test; for selectivity index (SI): cytotoxicity of A549 cells / cytotoxicity of HEK293 cells; for nuclear morphology in fluorescence imaging: DAPI staining, in the dark, A549 and HEK293 imaged; for average cell viability, A549: no light activation, % of control
Procedure: (§3) HEK293 or A549 Cells were collected from a T-25 culture flask following a standard cell culture harvesting procedure. A549 cells were diluted in cell culture media to a concentration of roughly 1,35,000 cells/mL. From this, the cells were loaded into individual chambers on an eight-chamber microscope slide, with a cell count per chamber of roughly 60,000 cells. This slide was then placed in an incubator (37 °C and 5.0% CO2 conditions) for 24 h before treating. When the treatment began, the original cell culture media was removed from the cells, and a compound/media mixture was added to each well. A control group of only cell culture media/DMSO was prepared and applied to one chamber in the slide, with the others consisting of treatment groups, following a serial dilution from 10 μM down to 0.15625 μM. After applying the treatment, the plate was returned to the incubator for 24 h. Following the incubation period, the cells were fixed using a 4% formaldehyde solution in the PBS buffer for 15 min at room temperature. After 15 min, the cells were washed three times with PBS. Then, to prepare the cells for staining, 0.5% Triton X-100 in PBS was applied to the cells for 15 min at room temperature. This was followed by three washes with PBS again. A 3% bovine serum albumin in PBS buffer was added to the cells for 60 min to block potential nonspecific binding sites for later 4′,6-diamidino-2-phenylindole (DAPI) staining. Another three washes with PBS were applied to the cells, and the cells were stained with a 1 μg/mL solution of DAPI and a mounting solution.
(§4) The imaging method employed fluorescence microscopy for nuclear staining visualization, allowing for an accurate quantification of viable cells based on intact nuclear morphology. ImageJ software was used to count the cell nuclei in each image. To avoid background signal, the software was set to only include nuclei of 20 μm^2 or larger. Viability quantification was performed by counting intact, properly stained nuclei and expressing results as a percentage of control values, with error bars representing standard error of the mean (SEM) from triplicate experiments. Statistical analysis was performed using unpaired t-tests with significance set at p < 0.05. Each nanoGUMBOS treatment was compared independently to control within the same cell lines, representing planned pairwise comparisons rather than exploratory testing. Given this, each nanoGUMBOS formulation that reduces cell viability will be assessed for an untreated cell line. Comparisons are made within discrete experimental groups for each cell line; thus, the unpaired t-test is employed. Dose–response curves and IC50 values were generated using a four-parameter logistic regression model implemented in Python (v3.12) within Jupyter Notebook (Anaconda distribution). Curve fitting was performed with the SciPy package (version 1.13), and figures were prepared using Matplotlib (v3.9). The rationale for selecting A549 (lung carcinoma) and HEK293 (noncancerous embryonic kidney) cell lines was based on their well-characterized nature and widespread use in cancer research, representing a relevant cancer model and a noncancerous control, respectively. […] Selectivity will be calculated using eq . 5 SI=cytotoxicityofA549cells/cytotoxicityofHEK293cells

[4] = test system: HEK293 human embryonic kidney cells; assay: Confocal microscopy cell viability (DAPI-stained nuclei), HEK293; format: cell-based; conditions: 10 μM nanoGUMBOS; for cell viability versus control, statistical significance, HEK293: unpaired t-test
Procedure: as §3, §4

A549 cells = test system: A549 cells; design: method as in numbers not shown in text; conditions: literature comparison, ref numbers not shown in text; cited from earlier work

Compound	K o/w (octanol–water partition constant) [1]	DLS PDI [2]	DLS mean size [2] [nm]	TEM mean size (S-TEM nanoparticle size) [nm]	TEM PDI (S-TEM nanoparticle size)	ζ-potential (DLS ζ-potential)	average viability decrease, A549 ([3]; 24 h) [%]	cell viability versus control, statistical significance, A549 [3]	selectivity index (SI) [3]	nuclear morphology in fluorescence imaging ([3]; nanoGUMBOS, 24 h)	IC50 ([3]; nanoGUMBOS, 24 h, four-parameter logistic fit, read-out: IC50 against A549 cells)	cell viability decrease, HEK293 ([4]; 24 h) [%]	cell viability, HEK293 ([4]; 24 h, % of control) [%]	cell viability versus control, statistical significance, HEK293 [4]	DLS mean size ([2]; listed as [TPP] 2 [RB]) [nm]	nanoparticle diameter (method not stated at the place) (S-TEM nanoparticle size; nanoGUMBOS by reprecipitation)	average cell viability, A549 ([3]; 24 h)	DLS mean size ([2]; listed as [Na] 2 [RB]) [nm]	selectivity index (A549 cells)
CCCCCCCCCCCCn1cc[n+](C)c1.CCCCCCCCCCCCn1cc[n+](C)c1.O=C([O-])c1c(Cl)c(Cl)c(Cl)c(Cl)c1-c1c2cc(I)c(=O)c(I)c-2oc2c(I)c([O-])c(I)cc12 [[C12MIm]2[RB], 1-dodecyl-3-methylimidazolium Rose Bengal]	2.5	0.37	59.87 ± 8.23	70.31 ± 16.43	0.23	≈ −30 mV	77.4	statistically significant reductions in cell viability; also recorded: statistically significant decrease in cell viability	2.1	altered nuclear morphology consistent with apoptotic processes	2160 nM and 2200 nM	63.1	47.1	statistically significant reductions in cell viability; also recorded: statistically significant decrease in cell viability	–	–	–	–	–
tetrabutylphosphonium Rose Bengal [[TBP]2[RB]]	–	–	–	–	–	–	–	no statistically significant difference	–	minimal cellular changes	–	–	–	no statistically significant difference	–	–	–	–	–
O=C([O-])c1c(Cl)c(Cl)c(Cl)c(Cl)c1-c1c2cc(I)c(=O)c(I)c-2oc2c(I)c([O-])c(I)cc12.c1ccc([P+](c2ccccc2)(c2ccccc2)c2ccccc2)cc1.c1ccc([P+](c2ccccc2)(c2ccccc2)c2ccccc2)cc1 [[TPP]2[RB], tetraphenylphosphonium Rose Bengal]	2.8	0.22	40.66	45.33 ± 11.53	0.24	approximately −30 mV	57.2	statistically significant reductions in cell viability; also recorded: statistically significant decrease in cell viability	1.5	altered nuclear morphology consistent with apoptotic processes	–	–	–	statistically significant reductions in cell viability; also recorded: statistically significant decrease in cell viability	40.66 ± 3.33	below 100 nm	below 50%	–	–
O=C(O)c1c(Cl)c(Cl)c(Cl)c(Cl)c1-c1c2cc(I)c(=O)c(I)c-2oc2c(I)c(O)c(I)cc12 [[Na]2[RB], Rose Bengal disodium salt, reference compound]	4.5	0.58	230.9	268.62 ± 74.02	0.28	−18.4 mV	–	no statistically significant difference	–	minimal cellular changes	–	–	–	no statistically significant difference	–	–	86.7%	230.90 ± 17.89	–
N.N.[Cl][Pt][Cl] [cisplatin]	–	–	–	–	–	–	–	–	–	–	–	–	–	–	–	–	–	–	under 2
COc1cccc2c1C(=O)c1c(O)c3c(c(O)c1C2=O)C[C@@](O)(C(=O)CO)C[C@@H]3O[C@H]1C[C@H](N)[C@H](O)[C@H](C)O1 [Doxorubicin]	–	–	–	–	–	–	–	–	–	–	–	–	–	–	–	–	–	–	1.5
